From the NIST ThermoML archive (doi:10.1021/je050089u)
Numbers after ± are expanded uncertainties.

Experiment: excess molar enthalpy (molar enthalpy of mixing); xn = mol fraction of the nth substance listed
Details: Fluid (supercritical or subcritical phases)

COC(=O)OC [dimethyl carbonate] + O=C=O
excess molar enthalpy (298.15 K, 5000 kPa, x2 = 0.0793): -0.207 ± 0.00382 kcal/mol
excess molar enthalpy (298.15 K, 5000 kPa, x2 = 0.1538): -0.427 ± 0.00693 kcal/mol
excess molar enthalpy (298.15 K, 5000 kPa, x2 = 0.224): -0.636 ± 0.0103 kcal/mol
excess molar enthalpy (298.15 K, 5000 kPa, x2 = 0.2902): -0.832 ± 0.0131 kcal/mol
excess molar enthalpy (298.15 K, 5000 kPa, x2 = 0.3528): -1.02 ± 0.0163 kcal/mol
excess molar enthalpy (298.15 K, 5000 kPa, x2 = 0.4121): -1.15 ± 0.0182 kcal/mol
excess molar enthalpy (298.15 K, 5000 kPa, x2 = 0.4683): -1.33 ± 0.021 kcal/mol
excess molar enthalpy (298.15 K, 5000 kPa, x2 = 0.5216): -1.48 ± 0.0232 kcal/mol
excess molar enthalpy (298.15 K, 5000 kPa, x2 = 0.5723): -1.59 ± 0.0239 kcal/mol
excess molar enthalpy (298.15 K, 5000 kPa, x2 = 0.6206): -1.71 ± 0.0263 kcal/mol
excess molar enthalpy (298.15 K, 5000 kPa, x2 = 0.6666): -1.82 ± 0.0287 kcal/mol
excess molar enthalpy (298.15 K, 5000 kPa, x2 = 0.7104): -1.92 ± 0.0311 kcal/mol
excess molar enthalpy (298.15 K, 5000 kPa, x2 = 0.7523): -1.99 ± 0.0311 kcal/mol
excess molar enthalpy (298.15 K, 5000 kPa, x2 = 0.7924): -2.07 ± 0.0335 kcal/mol
excess molar enthalpy (298.15 K, 5000 kPa, x2 = 0.8307): -2.13 ± 0.0335 kcal/mol
excess molar enthalpy (298.15 K, 5000 kPa, x2 = 0.8382): -2.09 ± 0.0335 kcal/mol
excess molar enthalpy (298.15 K, 5000 kPa, x2 = 0.8674): -1.69 ± 0.0263 kcal/mol
excess molar enthalpy (298.15 K, 5000 kPa, x2 = 0.9026): -1.26 ± 0.0201 kcal/mol
excess molar enthalpy (298.15 K, 5000 kPa, x2 = 0.9364): -0.785 ± 0.0124 kcal/mol
excess molar enthalpy (298.15 K, 5000 kPa, x2 = 0.9688): -0.384 ± 0.00621 kcal/mol
excess molar enthalpy (298.15 K, 5000 kPa, x2 = 0.9969): 0.0153 ± 0.00191 kcal/mol
excess molar enthalpy (298.15 K, 5500 kPa, x2 = 0.1548): -0.4 ± 0.00669 kcal/mol
excess molar enthalpy (298.15 K, 5500 kPa, x2 = 0.2253): -0.618 ± 0.01 kcal/mol
excess molar enthalpy (298.15 K, 5500 kPa, x2 = 0.2918): -0.794 ± 0.0127 kcal/mol
excess molar enthalpy (298.15 K, 5500 kPa, x2 = 0.3546): -0.967 ± 0.0153 kcal/mol
excess molar enthalpy (298.15 K, 5500 kPa, x2 = 0.4139): -1.12 ± 0.0177 kcal/mol
excess molar enthalpy (298.15 K, 5500 kPa, x2 = 0.4702): -1.27 ± 0.0201 kcal/mol
excess molar enthalpy (298.15 K, 5500 kPa, x2 = 0.5235): -1.4 ± 0.0222 kcal/mol
excess molar enthalpy (298.15 K, 5500 kPa, x2 = 0.5742): -1.52 ± 0.0239 kcal/mol
excess molar enthalpy (298.15 K, 5500 kPa, x2 = 0.6223): -1.61 ± 0.0263 kcal/mol
excess molar enthalpy (298.15 K, 5500 kPa, x2 = 0.6682): -1.73 ± 0.0263 kcal/mol
excess molar enthalpy (298.15 K, 5500 kPa, x2 = 0.712): -1.82 ± 0.0287 kcal/mol
excess molar enthalpy (298.15 K, 5500 kPa, x2 = 0.7537): -1.91 ± 0.0287 kcal/mol
excess molar enthalpy (298.15 K, 5500 kPa, x2 = 0.7936): -1.98 ± 0.0311 kcal/mol
excess molar enthalpy (298.15 K, 5500 kPa, x2 = 0.8318): -2.02 ± 0.0311 kcal/mol
excess molar enthalpy (298.15 K, 5500 kPa, x2 = 0.8683): -2.04 ± 0.0311 kcal/mol
excess molar enthalpy (298.15 K, 5500 kPa, x2 = 0.9033): -2.03 ± 0.0311 kcal/mol
excess molar enthalpy (298.15 K, 5500 kPa, x2 = 0.9368): -1.51 ± 0.0237 kcal/mol
excess molar enthalpy (298.15 K, 5500 kPa, x2 = 0.9691): -0.767 ± 0.0122 kcal/mol
excess molar enthalpy (298.15 K, 6000 kPa, x2 = 0.1557): -0.389 ± 0.00645 kcal/mol
excess molar enthalpy (298.15 K, 6000 kPa, x2 = 0.2265): -0.558 ± 0.00908 kcal/mol
excess molar enthalpy (298.15 K, 6000 kPa, x2 = 0.2932): -0.797 ± 0.0127 kcal/mol
excess molar enthalpy (298.15 K, 6000 kPa, x2 = 0.3561): -0.905 ± 0.0143 kcal/mol
excess molar enthalpy (298.15 K, 6000 kPa, x2 = 0.4156): -1.04 ± 0.0165 kcal/mol
excess molar enthalpy (298.15 K, 6000 kPa, x2 = 0.4718): -1.19 ± 0.0189 kcal/mol
excess molar enthalpy (298.15 K, 6000 kPa, x2 = 0.5252): -1.29 ± 0.0203 kcal/mol
excess molar enthalpy (298.15 K, 6000 kPa, x2 = 0.5758): -1.4 ± 0.022 kcal/mol
excess molar enthalpy (298.15 K, 6000 kPa, x2 = 0.6239): -1.52 ± 0.0239 kcal/mol
excess molar enthalpy (298.15 K, 6000 kPa, x2 = 0.6697): -1.62 ± 0.0263 kcal/mol
excess molar enthalpy (298.15 K, 6000 kPa, x2 = 0.7134): -1.69 ± 0.0263 kcal/mol
excess molar enthalpy (298.15 K, 6000 kPa, x2 = 0.755): -1.73 ± 0.0263 kcal/mol
excess molar enthalpy (298.15 K, 6000 kPa, x2 = 0.7947): -1.8 ± 0.0287 kcal/mol
excess molar enthalpy (298.15 K, 6000 kPa, x2 = 0.8327): -1.85 ± 0.0287 kcal/mol
excess molar enthalpy (298.15 K, 6000 kPa, x2 = 0.8691): -1.87 ± 0.0287 kcal/mol
excess molar enthalpy (298.15 K, 6000 kPa, x2 = 0.9039): -1.89 ± 0.0287 kcal/mol
excess molar enthalpy (298.15 K, 6000 kPa, x2 = 0.9502): -1.86 ± 0.0287 kcal/mol
excess molar enthalpy (298.15 K, 6000 kPa, x2 = 0.9693): -1.78 ± 0.0287 kcal/mol
excess molar enthalpy (298.15 K, 6000 kPa, x2 = 0.9817): -0.864 ± 0.0139 kcal/mol
excess molar enthalpy (303.15 K, 5000 kPa, x2 = 0.0793): -0.237 ± 0.00406 kcal/mol
excess molar enthalpy (303.15 K, 5000 kPa, x2 = 0.1538): -0.446 ± 0.00717 kcal/mol
excess molar enthalpy (303.15 K, 5000 kPa, x2 = 0.224): -0.641 ± 0.0103 kcal/mol
excess molar enthalpy (303.15 K, 5000 kPa, x2 = 0.2902): -0.833 ± 0.0134 kcal/mol
excess molar enthalpy (303.15 K, 5000 kPa, x2 = 0.3528): -1.01 ± 0.016 kcal/mol
excess molar enthalpy (303.15 K, 5000 kPa, x2 = 0.4121): -1.19 ± 0.0189 kcal/mol
excess molar enthalpy (303.15 K, 5000 kPa, x2 = 0.4683): -1.33 ± 0.021 kcal/mol
excess molar enthalpy (303.15 K, 5000 kPa, x2 = 0.5216): -1.48 ± 0.0234 kcal/mol
excess molar enthalpy (303.15 K, 5000 kPa, x2 = 0.5723): -1.6 ± 0.0263 kcal/mol
excess molar enthalpy (303.15 K, 5000 kPa, x2 = 0.6206): -1.71 ± 0.0263 kcal/mol
excess molar enthalpy (303.15 K, 5000 kPa, x2 = 0.6666): -1.83 ± 0.0287 kcal/mol
excess molar enthalpy (303.15 K, 5000 kPa, x2 = 0.7104): -1.93 ± 0.0311 kcal/mol
excess molar enthalpy (303.15 K, 5000 kPa, x2 = 0.7523): -2.01 ± 0.0311 kcal/mol
excess molar enthalpy (303.15 K, 5000 kPa, x2 = 0.7686): -2.04 ± 0.0311 kcal/mol
excess molar enthalpy (303.15 K, 5000 kPa, x2 = 0.7766): -2.04 ± 0.0311 kcal/mol
excess molar enthalpy (303.15 K, 5000 kPa, x2 = 0.8307): -1.48 ± 0.0234 kcal/mol
excess molar enthalpy (303.15 K, 5000 kPa, x2 = 0.8674): -1.15 ± 0.0182 kcal/mol
excess molar enthalpy (303.15 K, 5000 kPa, x2 = 0.9026): -0.913 ± 0.0146 kcal/mol
excess molar enthalpy (303.15 K, 5000 kPa, x2 = 0.9364): -0.571 ± 0.00932 kcal/mol
excess molar enthalpy (303.15 K, 5000 kPa, x2 = 0.9688): -0.254 ± 0.0043 kcal/mol
excess molar enthalpy (303.15 K, 5500 kPa, x2 = 0.0798): -0.214 ± 0.00382 kcal/mol
excess molar enthalpy (303.15 K, 5500 kPa, x2 = 0.1548): -0.438 ± 0.00717 kcal/mol
excess molar enthalpy (303.15 K, 5500 kPa, x2 = 0.2253): -0.619 ± 0.01 kcal/mol
excess molar enthalpy (303.15 K, 5500 kPa, x2 = 0.2918): -0.798 ± 0.0127 kcal/mol
excess molar enthalpy (303.15 K, 5500 kPa, x2 = 0.3546): -0.989 ± 0.0158 kcal/mol
excess molar enthalpy (303.15 K, 5500 kPa, x2 = 0.4139): -1.15 ± 0.0182 kcal/mol
excess molar enthalpy (303.15 K, 5500 kPa, x2 = 0.4702): -1.3 ± 0.0206 kcal/mol
excess molar enthalpy (303.15 K, 5500 kPa, x2 = 0.5235): -1.41 ± 0.0222 kcal/mol
excess molar enthalpy (303.15 K, 5500 kPa, x2 = 0.5742): -1.54 ± 0.0239 kcal/mol
excess molar enthalpy (303.15 K, 5500 kPa, x2 = 0.6223): -1.64 ± 0.0263 kcal/mol
excess molar enthalpy (303.15 K, 5500 kPa, x2 = 0.6682): -1.75 ± 0.0287 kcal/mol
excess molar enthalpy (303.15 K, 5500 kPa, x2 = 0.712): -1.85 ± 0.0287 kcal/mol
excess molar enthalpy (303.15 K, 5500 kPa, x2 = 0.7537): -1.92 ± 0.0311 kcal/mol
excess molar enthalpy (303.15 K, 5500 kPa, x2 = 0.7936): -1.98 ± 0.0311 kcal/mol
excess molar enthalpy (303.15 K, 5500 kPa, x2 = 0.8318): -2.02 ± 0.0311 kcal/mol
excess molar enthalpy (303.15 K, 5500 kPa, x2 = 0.8392): -2.01 ± 0.0311 kcal/mol
excess molar enthalpy (303.15 K, 5500 kPa, x2 = 0.8466): -1.89 ± 0.0287 kcal/mol
excess molar enthalpy (303.15 K, 5500 kPa, x2 = 0.8683): -1.62 ± 0.0263 kcal/mol
excess molar enthalpy (303.15 K, 5500 kPa, x2 = 0.9033): -1.18 ± 0.0186 kcal/mol
excess molar enthalpy (303.15 K, 5500 kPa, x2 = 0.9368): -0.733 ± 0.0117 kcal/mol
excess molar enthalpy (303.15 K, 5500 kPa, x2 = 0.9691): -0.331 ± 0.0055 kcal/mol
excess molar enthalpy (303.15 K, 6000 kPa, x2 = 0.0803): -0.202 ± 0.00382 kcal/mol
excess molar enthalpy (303.15 K, 6000 kPa, x2 = 0.1557): -0.41 ± 0.00669 kcal/mol
excess molar enthalpy (303.15 K, 6000 kPa, x2 = 0.2265): -0.6 ± 0.00956 kcal/mol
excess molar enthalpy (303.15 K, 6000 kPa, x2 = 0.2932): -0.78 ± 0.0124 kcal/mol
excess molar enthalpy (303.15 K, 6000 kPa, x2 = 0.3561): -0.923 ± 0.0146 kcal/mol
excess molar enthalpy (303.15 K, 6000 kPa, x2 = 0.4156): -1.1 ± 0.0174 kcal/mol
excess molar enthalpy (303.15 K, 6000 kPa, x2 = 0.4718): -1.23 ± 0.0194 kcal/mol
excess molar enthalpy (303.15 K, 6000 kPa, x2 = 0.5252): -1.36 ± 0.0215 kcal/mol
excess molar enthalpy (303.15 K, 6000 kPa, x2 = 0.5758): -1.47 ± 0.0232 kcal/mol
excess molar enthalpy (303.15 K, 6000 kPa, x2 = 0.6239): -1.58 ± 0.0239 kcal/mol
excess molar enthalpy (303.15 K, 6000 kPa, x2 = 0.6697): -1.67 ± 0.0263 kcal/mol
excess molar enthalpy (303.15 K, 6000 kPa, x2 = 0.7134): -1.76 ± 0.0287 kcal/mol
excess molar enthalpy (303.15 K, 6000 kPa, x2 = 0.755): -1.82 ± 0.0287 kcal/mol
